Data set [1] concerns duplex nucleic acid substrates bearing single abasic, single NCP, and tandem NCP sites. Nature of the data set: Fluorogenic probe library screen, overall. Conditions: 2 μM probe, 2 μM duplex. Format: binding. The method, then:
(§1) Fluorescence Measurements. Samples for screening were prepared as solutions with 50 mM HEPES (pH 7.5), 100 mM NaCl, 2 μM dsDNA/dsRNA, 2 μM probe (4 μM probe with tandem mismatch). Prior to use, nucleic acids were annealed (95° C./5 min, slow cool to RT over 2 h) to pre-form the duplex. Prepared samples were incubated at room temperature for 30 min before measuring fluorescence (Thermo Fisher Nanodrop 3300, excitation/emission=470/522 nm). For each measurement, 2 μl of sample was applied to the center of the nanodrop probe. All fluorescence values are the average of triplicate measurements, starting from fresh sample preparation. Error bars indicate standard deviation. The relative intensity (turn-on) was calculated using the equation below.

Data set [2] deals with tandem NCP sites (2×2 internal bulges) in dsRNA. Briefly: Tandem NCP RNA library screen. Format: binding. To be noted: 4 μM probe, 2 μM RNA duplex. On the procedure: as §1
For data set [3] the following is noted: cited from earlier work.
For data set [4] the following is noted: parent dye free in solution; cited from earlier work.

Consider `Oc1nc(O)nc(O)n1` [CA], for which, in data set [1], the “binding in the abasic or single NCP screens” value is given as “did not show any binding”. Also, in data set [2], the “targeting of AG/CU internal bulge” value is recorded as “could be targeted”.
As to `Nc1nc(=O)[nH]c(=O)[nH]1` [ammelide], in data set [3], the pKa is on record as ~ 6.9.
Consider `CN1C(=Cc2cc[n+](C)c3ccccc23)Sc2ccccc21` [thiazole orange], for which, in data set [4], the “quantum yield in solution” value was ~ 10^−4.
Turning to `O=c1[nH]c(=O)[nH]c(=O)[nH]1` [cyanuric acid], in data set [3], the pKa is given as ~ 6.9.

These data come from patent publication US20260256926A1, “BIFACIAL PEPTIDE NUCLEIC ACID PROBES AND METHODS OF USING THEREOF” (Ohio State Innovation Foundation, priority 2022, published 2026).
